For data set [1], the system named is pyruvate carboxylase. Put plainly: qRT-PCR analysis of gene expression level in lung adenocarcinoma cells. In kind it is cell-based. The following applies: FIG. 11. The protocol:
(§1) This example related to a process of transfecting an agonist to lung adenocarcinoma cells: after the lung adenocarcinoma cells were passaged to a cell density of about 30-50%, the agonist was transfected to the lung adenocarcinoma cells by lipo3000. 5 μl (100 pmol) of the agonist was added to an EP tube containing 95 μl of a DMEM medium by pipetting and mixing, 5 μl of lipo3000 was added to the EP tube containing 95 μl of the DMEM medium by pipetting and mixing, the two materials were mixed at a volume ratio of 1:1 to form a transfection mixture, the mixture was allowed to stand at a room temperature for 20 min and added into a culture plate, and an analysis at gene and protein levels was conducted after 48 h. […]

Data set [2] deals with lung adenocarcinoma cells HCC2279. Put plainly: Edu staining proliferation assay. In kind it is cell-based. The following applies: after transfection for two days, FIGS. 2 and 3. As to the method: as §1
Data set [3] relates to lung adenocarcinoma cells A549. The data set can be described thus: Edu staining proliferation assay. Type of data set: cell-based. The following applies: after transfection for two days, FIGS. 2 and 3. As to the method:
as §1

For the next data set, the system named is A549 cells. The data set can be described thus: Tumor-bearing model of a nude mouse, intratumoral treatment. Type of data set: in vivo, BALB/c nude mice. The protocol: This example related to a process of constructing a tumor-bearing model of a nude mouse: 3- to 4-week-old BALB/c nude mice (SiPeiFu Laboratory Animal Technology Co., Ltd) were taken and used for an experiment after adapting to local conditions for 1 week, 2×10^7 of A549 cells were injected subcutaneously into left and right armpits of the mice, and when an implanted tumor reached 50 mm^3, a drug treatment was conducted.
This example related to a drug-targeted treatment process of a tumor-bearing model of a nude mouse: • The nude mice were divided into two groups: a cisplatin experimental group and a normal saline control group, with 5 nude mice in each group; • The nude mice in the experimental group were injected intraperitoneally with cisplatin (5 mg/kg body weight/week), 50 μM of a PIWI-interacting RNA piR-hsa-211106 agonist was injected directly into a tumor on a right side and piR-NC (Shanghai GenePharma Co., Ltd) was injected into a tumor on a left side as a control group of the cisplatin treatment group; • An equal volume of normal saline was injected intraperitoneally into the nude mice in the control group, the PIWI-interacting RNA piR-hsa-211106 agonist was used to treat the tumor as above, the PIWI-interacting RNA piR-hsa-211106 agonist was used for treatment every other day for 28 days, and the tumor volume was measured once a week; the mice were sacrificed at an end of the experiment, and xenografts were peeled off and photographed.

Data set [4] has as its system pyruvate carboxylase. The data set can be described thus: Western blot analysis of protein expression level in lung adenocarcinoma cells. Type of data set: cell-based. The following applies: GAPDH internal reference, FIG. 12. The protocol:
as §1
the protein samples were separated by an SDS-PAGE electrophoresis, the separated proteins were transferred to a PVDF membrane, the membrane was blocked with 5% powdered skim milk for 1 h, the membrane was washed, an incubation with a primary antibody (PC, GAPDH) was conducted overnight in a 4° C. refrigerator, the membrane was washed, an incubation with a secondary antibody was conducted at room temperature for 1 h, the membrane was washed, a target band was obtained by ECL chemiluminescence method, the band was subjected to a grayscale scanning by using a Quantity One software and a GAPDH internal reference was used for correction.

Data set [5] relates to lung adenocarcinoma cells HCC2279. Put plainly: Transwell chamber migration assay. Type of data set: cell-based. The following applies: after transfection for two days, 24 h migration, FIGS. 4 and 5. The protocol:
(§2) This example related to a process of transfecting an agonist to lung adenocarcinoma cells: after the lung adenocarcinoma cells were passaged to a cell density of about 30-50%, the agonist was transfected to the lung adenocarcinoma cells by lipo3000. 5 μl (100 pmol) of the agonist was added to an EP tube containing 95 μl of a DMEM medium by pipetting and mixing, 5 μl of lipo3000 was added to the EP tube containing 95 μl of the DMEM medium by pipetting and mixing, the two materials were mixed at a volume ratio of 1:1 to form a transfection mixture, the mixture was allowed to stand at a room temperature for 20 min and added into a culture plate, and an analysis at gene and protein levels was conducted after 48 h.

For data set [6], the system named is lung adenocarcinoma cells A549. The data set can be described thus: Transwell chamber migration assay. In kind it is cell-based. The following applies: after transfection for two days, 24 h migration, FIGS. 4 and 5. The protocol:
as §2

For data set [7], the target named is T1, pyruvate carboxylase (Homo sapiens, UniProt P11498).
T1 construct: 1×10^7 lung adenocarcinoma cells were harvested, lysed and subjected to an ultrasonic treatment; endogenous in cells
T1 sequence (P11498 21-1178): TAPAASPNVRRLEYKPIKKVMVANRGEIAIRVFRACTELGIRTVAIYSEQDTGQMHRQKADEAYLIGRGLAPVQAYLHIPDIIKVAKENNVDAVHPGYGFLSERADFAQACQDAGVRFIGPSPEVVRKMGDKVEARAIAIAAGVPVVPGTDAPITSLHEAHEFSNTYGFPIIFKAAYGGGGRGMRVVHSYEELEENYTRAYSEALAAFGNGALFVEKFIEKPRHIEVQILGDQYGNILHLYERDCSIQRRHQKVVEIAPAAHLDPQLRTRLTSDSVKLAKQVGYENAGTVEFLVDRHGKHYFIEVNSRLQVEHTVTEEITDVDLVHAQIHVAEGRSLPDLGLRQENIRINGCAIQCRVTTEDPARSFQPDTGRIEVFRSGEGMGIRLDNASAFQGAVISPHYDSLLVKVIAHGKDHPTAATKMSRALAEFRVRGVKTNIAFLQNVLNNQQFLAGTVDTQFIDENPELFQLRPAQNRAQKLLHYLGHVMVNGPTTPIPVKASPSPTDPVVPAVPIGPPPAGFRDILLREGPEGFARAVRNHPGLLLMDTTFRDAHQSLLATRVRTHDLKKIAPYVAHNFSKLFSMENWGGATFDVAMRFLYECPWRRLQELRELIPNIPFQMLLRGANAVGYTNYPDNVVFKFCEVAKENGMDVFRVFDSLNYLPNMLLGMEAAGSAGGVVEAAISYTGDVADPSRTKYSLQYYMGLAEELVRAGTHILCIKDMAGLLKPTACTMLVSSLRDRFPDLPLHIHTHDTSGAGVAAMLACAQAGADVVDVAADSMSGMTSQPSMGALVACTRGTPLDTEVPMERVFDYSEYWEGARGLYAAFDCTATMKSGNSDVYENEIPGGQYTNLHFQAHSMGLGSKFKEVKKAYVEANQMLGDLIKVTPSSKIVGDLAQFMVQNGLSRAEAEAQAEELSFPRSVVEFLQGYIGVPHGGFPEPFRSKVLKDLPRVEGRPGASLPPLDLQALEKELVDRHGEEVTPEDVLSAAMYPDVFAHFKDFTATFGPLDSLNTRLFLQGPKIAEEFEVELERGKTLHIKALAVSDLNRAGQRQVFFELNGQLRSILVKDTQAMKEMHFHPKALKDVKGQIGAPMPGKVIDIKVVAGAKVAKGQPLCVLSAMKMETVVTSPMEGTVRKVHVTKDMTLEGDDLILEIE
The data set can be described thus: Biotin-coupled probe RNA pull-down assay with western blot. Type of data set: binding. The following applies: biotinylated piR-hsa-211106 probe, lung adenocarcinoma cell lysate; FIG. 10. For orientation: A western blot detects proteins with antibodies after separation by electrophoresis.

The subject of data set [8] is lung adenocarcinoma cells HCC2279. Put plainly: CCK8 proliferation activity assay. Type of data set: cell-based. The following applies: 0, 1, 2, 3, and 4 days after transfection, FIG. 1. The protocol: as §2
A general note: Formazan colour is commonly taken as a measure of viable cells.

The test system of data set [9] is lung adenocarcinoma cells A549. Put plainly: CCK8 proliferation activity assay. The following applies: 0, 1, 2, 3, and 4 days after transfection, FIG. 1. In kind it is cell-based. The protocol:
as §2

In data set [10] the test system is lung adenocarcinoma cells HCC2279. The data set can be described thus: Scratch experiment migration assay. Type of data set: cell-based. The following applies: after transfection for two days, 0 h and 24 h after scratching, FIGS. 6 and 7. The protocol:
as §2

For data set [11], the system named is lung adenocarcinoma cells A549. The data set can be described thus: Scratch experiment migration assay. In kind it is cell-based. The following applies: after transfection for two days, 0 h and 24 h after scratching, FIGS. 6 and 7. The protocol:
as §2

Data set [12] has as its system lung adenocarcinoma cells HCC2279. The data set can be described thus: Apoptosis by flow cytometry (Annexin V-FITC/PI). Type of data set: cell-based. The following applies: after transfection for two days, FIGS. 8 and 9. The protocol:
(§3) This example related to a process of transfecting an agonist to lung adenocarcinoma cells: after the lung adenocarcinoma cells were passaged to a cell density of about 30-50%, the agonist was transfected to the lung adenocarcinoma cells by lipo3000. […]
(§4) This example related to a detection process of apoptosis of lung adenocarcinoma cells A549 and HCC2279 by a flow cytometry: the lung adenocarcinoma cells were cultured, the cells in the experimental group were transfected with a PIWI-interacting RNA piR-hsa-211106, after transfection for two days, apoptosis was detected by Annexin V-FITC/PI (Shanghai YEASEN Biotechnology Co., Ltd): • (1) after the lung adenocarcinoma cells were digested with a trypsin without EDTA, centrifugation was conducted at 300 g and 4° C. for 5 min and the cells were collected; • (2) the cells were washed twice with a pre-cooled PBS, centrifugation was conducted at 300 g and 4° C. for 5 min each time and 1-5×10^5 cells were collected; • (3) the PBS was pipetted and discarded, and 1× binding buffer was added to resuspend the cells; • (4) annexin V-FITC and a PI staining solution were added, gentle mixing was conducted, and reaction was conducted in dark at room temperature for 10-15 min; and • (5) 1× binding buffer was added, even mixing was conducted, an obtained mixture was placed on ice, and detection was conducted with the flow cytometry within 1 h.

Data set [13] concerns lung adenocarcinoma cells A549. The data set can be described thus: Apoptosis by flow cytometry (Annexin V-FITC/PI). In kind it is cell-based. The following applies: after transfection for two days, FIGS. 8 and 9. The protocol: as §3, §4
For orientation: A flow cytometer gives signals particle by particle.

[14] abbreviates: injected into tumors in nude mice, versus control groups.

Entries after “also recorded” stand apart in the source; their conditions may differ.

Regarding “piR-hsa-211106: PIWI-interacting RNA, SEQ ID NO:1 TCCGGCTCGAAGGACTTCGTCTGTAATTTT; used as double-strand agonist with cholesterol, thio skeleton and methoxy modifications (cholesterol, phosphorothioate and 2'-OMe modifications, pattern not given here, duplex)”, the “expression of pyruvate carboxylase (gene expression level, qRT-PCR)” value in the data set with pyruvate carboxylase [1] was “significantly inhibit an expression”. Further, the “proportion of proliferating cells (Edu staining)” value in data set [2] and in data set [3] was “significantly inhibit the growth” in each case. Moreover, the “therapeutic effect compared with positive control cisplatin” value in the data set on A549 cells (50 μM agonist injected directly into tumor every other day for 28 days, cisplatin 5 mg/kg body weight/week intraperitoneally, FIGS. 13, 14 and 15) is listed as “comparable to that of the positive control group treated with cisplatin; also recorded: comparable therapeutic effect as the positive control drug cisplatin”. Also, the “growth of lung adenocarcinoma in vivo” value in the data set on A549 cells (A549 tumor in nude mice, agonist intratumoral every other day for 28 days) is recorded as “capable of inhibiting growth of lung adenocarcinoma in vivo”. Further, the “effect in combination with cisplatin” value with A549 cells (agonist intratumoral plus cisplatin 5 mg/kg body weight/week intraperitoneally, 28 days) was “increases chemical sensitivity of the chemotherapeutic drug cisplatin and has a synergistic effect”. For the same substance, the tumor volume entry with A549 cells (setting [14]) is “smaller than those of the control groups”. For the same substance, the tumor weight entry in the data set with A549 cells (setting [14]) is “smaller than those of the control groups”. The “expression of pyruvate carboxylase at a protein level (WB)” value in the data set with pyruvate carboxylase [4] is “can regulate an expression of a pyruvate carboxylase at a protein level”. Further, the “migration ability (Transwell chamber, migrated cells counted)” value in [5] and in data set [6] was “significantly inhibit the migration ability” throughout. The “binding to pyruvate carboxylase (RNA pull-down)” value in the data set with pyruvate carboxylase [7] is “binds to the PC; also recorded: can bind to a pyruvate carboxylase”. The “cell proliferation activity (OD value at 450 nm, CCK8)” value in [8] and in [9] was “significantly inhibit the proliferation” in each case. The “migration ability (scratch experiment, relative migration rate)” value in data set [10] and in data set [11] was “significantly inhibit the migration ability” throughout. The “apoptosis (flow cytometry)” value in data set [12] and in data set [13] was “significantly cause the apoptosis” in each case.
